This note sets out measurements from ChEMBL document CHEMBL1201862, “PubChem BioAssay data set” (2004).

Active and inactive are the calls of the source. Where only a bound is given, the exact number is not on record here.

Experiment [1] can be described thus: Luminescence Cell-Based Dose Confirmation HTS to Identify Inhibitors of Platelet Dense Granule Release. [Related pubchem assays: 1663 (Primary HTS), 1678 (Summary of Project)]. Format: functional.
For experiment [2], the target named is Luciferin 4-monooxygenase (Photinus pyralis, UniProt P08659). Description: firefly luciferase enzyme inhibitors, dose response, biochemical, luminescence (AID 1891).
A short description of experiment [3]: inhibitors of SFLLRN-triggered platelet P-selectin exposure, dose response, cell-based, fluorescence, flow cytometry, human platelets (AID 2511). Format: functional. In general terms: A flow cytometer gives signals particle by particle.
The nature of experiment [4]: Luminescence Cell-Based Dose Response Follow up to Identify Inhibitors of Platelet Dense Granule Release. [Related pubchem assays (depositor defined):AID1663, AID1678, AID1889, AID2519]. The format is functional.
A further experiment concerns HEK293. Description: cells. Format: functional, cell-based. The following applies: Homo sapiens.
Experiment [5] addresses Nuclear receptor subfamily 0 group B member 1 (Homo sapiens, UniProt P51843). Briefly: Luminescence-based cell-based high throughput dose response assay for inhibitors of the orphan nuclear receptor subfamily 0, group B, member 1 (DAX1; NR0B1). [Related pubchem assays (depositor defined):AID504766, AID504790]. Format: functional.
Experiment [6] concerns the target Voltage-gated inwardly rectifying potassium channel KCNH2 (Homo sapiens, UniProt Q12809). The following applies: Potency.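 Further: confirmatory quantitative high-throughput screen measuring inhibition of hERG channel activity.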
The target of experiment [7] is T1, Dual specificity protein phosphatase 6 (Rattus norvegicus, UniProt Q64346).
T1 sequence (Q64346 whole entry): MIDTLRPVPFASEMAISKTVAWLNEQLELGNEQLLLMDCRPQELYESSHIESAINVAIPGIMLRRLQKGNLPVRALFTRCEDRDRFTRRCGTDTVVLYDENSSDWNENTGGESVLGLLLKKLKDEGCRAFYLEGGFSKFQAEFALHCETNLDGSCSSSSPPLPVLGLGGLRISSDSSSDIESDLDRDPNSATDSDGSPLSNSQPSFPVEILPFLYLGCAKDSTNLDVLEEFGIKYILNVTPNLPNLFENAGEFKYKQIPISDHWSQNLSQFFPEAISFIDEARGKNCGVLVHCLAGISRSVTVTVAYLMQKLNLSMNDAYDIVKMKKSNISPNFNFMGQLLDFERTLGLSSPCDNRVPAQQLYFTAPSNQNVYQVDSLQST

Experiment [8] concerns the target T1, Dual specificity protein phosphatase 6. The format is functional.
Experiment [9] concerns the target Glyceraldehyde-3-phosphate dehydrogenase (Homo sapiens, UniProt P04406).
Experiment [10] has as its target T2, Tyrosine-protein phosphatase non-receptor type 7 (Homo sapiens, UniProt P35236).
T2 sequence (P35236 whole entry): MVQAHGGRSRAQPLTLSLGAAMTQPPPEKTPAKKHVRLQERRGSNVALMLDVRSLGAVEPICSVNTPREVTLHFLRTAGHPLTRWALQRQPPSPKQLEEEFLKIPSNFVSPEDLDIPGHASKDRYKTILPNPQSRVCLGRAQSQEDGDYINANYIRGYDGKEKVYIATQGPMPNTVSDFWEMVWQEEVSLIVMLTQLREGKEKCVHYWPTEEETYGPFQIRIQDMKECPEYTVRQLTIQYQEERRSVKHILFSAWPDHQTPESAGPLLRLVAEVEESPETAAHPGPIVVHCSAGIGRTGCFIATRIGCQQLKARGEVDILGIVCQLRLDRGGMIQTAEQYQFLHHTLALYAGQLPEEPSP
The format is functional.

Experiment [11] in a line: growth suppression of beta-catenin-knockout colon cells, dose response, cell-based, HCT116, human colon tumor (AID 1045).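 Further: HCT116 colon tumor cells with beta catenin knocked out; cells exposed to compound for 60 hours.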 The format is functional.
Experiment [12] addresses 5-hydroxytryptamine receptor 5A (Homo sapiens, UniProt P47898). Briefly: Counterscreen for agonists of OPRM1-OPRD1 heterodimerization: luminescence-based cell-based high throughput dose response assay to identify agonists of 5-hydroxytryptamine (serotonin) 5A receptor (HTR5A). [Related pubchem assays (depositor defined):AID504326, AID504355, AID504692, AID504904, AID504905]. The format is functional. (In general: A counterscreen serves to expose hits that act by an unwanted route or on another target.)

A further experiment concerns the target Mu-type opioid receptor (Homo sapiens, UniProt P35372). Description: Counterscreen for agonists of heterodimerization of the mu 1 (OPRM1) and delta 1 (OPRD1) opioid receptors: Luminescence-based cell-based high throughput dose response assay to identify agonists of OPRM1 homodimerization. The format is functional.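 Further: U2OS cells expressing OPRM1 and beta-arrestin as split beta-galactosidase partners.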
Experiment [13] deals with T3, High affinity choline transporter 1 (Homo sapiens, UniProt Q9GZV3).
T3 sequence (Q9GZV3 whole entry): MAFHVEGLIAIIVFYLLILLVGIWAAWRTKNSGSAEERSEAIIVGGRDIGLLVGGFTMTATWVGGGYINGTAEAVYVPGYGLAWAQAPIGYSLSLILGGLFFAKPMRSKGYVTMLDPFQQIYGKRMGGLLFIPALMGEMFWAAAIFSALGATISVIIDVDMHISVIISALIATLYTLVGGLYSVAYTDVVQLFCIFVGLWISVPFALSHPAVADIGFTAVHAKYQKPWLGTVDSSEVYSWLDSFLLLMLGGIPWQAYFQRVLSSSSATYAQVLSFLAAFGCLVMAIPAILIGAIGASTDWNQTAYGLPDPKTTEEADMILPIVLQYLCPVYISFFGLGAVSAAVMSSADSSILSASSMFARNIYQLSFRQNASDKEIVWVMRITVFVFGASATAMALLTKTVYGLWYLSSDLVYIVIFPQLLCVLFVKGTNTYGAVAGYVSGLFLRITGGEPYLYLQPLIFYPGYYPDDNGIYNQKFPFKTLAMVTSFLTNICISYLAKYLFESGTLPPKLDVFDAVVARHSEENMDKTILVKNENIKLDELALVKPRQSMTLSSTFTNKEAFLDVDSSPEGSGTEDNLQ
Briefly: CHT inhibitors, dose response, cell-based, 5-point CRC, membrane potential dye (AID 504840). Format: functional.

A short description of experiment [14]: growth suppression of PTEN-null colon cells, dose response, cell-based, HCT116 PTEN knockout (AID 1047).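 Further: HCT116 colon tumor cells with PTEN knocked out; cells exposed to compound for 60 hours before readout; potency for loss of cell viability measured by luminescence.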 The format is functional.
Experiment [15] has as its target Heat shock protein HSP 90-alpha (Homo sapiens, UniProt P07900). The format is functional, organism-based.
The nature of experiment [16]: Vero E6 cell cytotoxicity, dose response, cytotoxicity control for non-replicating M. tuberculosis project, secondary assay (AID 492998). To be noted: Vero C1008. Format: functional, VeroE6.
Experiment [17] has as its target T4, Mannose-6-phosphate isomerase (Homo sapiens, UniProt P34949).
T4 sequence (P34949 whole entry): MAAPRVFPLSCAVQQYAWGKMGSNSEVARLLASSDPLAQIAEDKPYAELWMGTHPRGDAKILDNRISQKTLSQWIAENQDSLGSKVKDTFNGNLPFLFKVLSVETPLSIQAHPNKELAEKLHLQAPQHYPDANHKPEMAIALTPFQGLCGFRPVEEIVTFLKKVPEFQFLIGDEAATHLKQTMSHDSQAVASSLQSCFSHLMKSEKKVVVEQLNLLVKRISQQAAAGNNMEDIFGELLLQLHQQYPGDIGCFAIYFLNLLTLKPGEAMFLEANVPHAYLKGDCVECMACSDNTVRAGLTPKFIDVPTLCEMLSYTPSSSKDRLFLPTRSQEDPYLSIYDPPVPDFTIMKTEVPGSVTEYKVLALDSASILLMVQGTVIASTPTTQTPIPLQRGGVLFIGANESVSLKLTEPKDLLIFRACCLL
Description: human PMI inhibitors, high substrate, primary screen, biochemical, fluorescence intensity, high mannose 6-phosphate (AID 1220).

In experiment [18] the target is Sphingosine 1-phosphate receptor 2 (Homo sapiens, UniProt O95136). Description: Dose Response Cell Based Assay for Antagonists of the S1P2 Receptor. [Related pubchem assays: 856, 736 ]. Format: functional.
Experiment [19] has as its target Delta-type opioid receptor (Homo sapiens, UniProt P41143). Description: Counterscreen for agonists of heterodimerization of the mu 1 (OPRM1) and delta 1 (OPRD1) opioid receptors: Luminescence-based cell-based high throughput dose response assay to identify agonists of OPRD1 homodimerization. [Related pubchem assays (depositor defined):AID504326, AID504355, AID504692, AID504904, AID504905]. The format is functional.

The next experiment can be described thus: cells. The format is functional.
The nature of experiment [20]: THP-1 cell cytotoxicity, dose response, cytotoxicity control for non-replicating M. tuberculosis project (AID 489025). Format: functional.
A further experiment concerns INS1. Briefly: beta cell apoptosis inhibitors, cytokine rescue, dose response, luminescence, retest (AID 449756).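 Further: cell death triggered by IL-1 beta plus TNF-alpha plus IFN-gamma mixture; protective hits raise ATP signal compared with cytokine alone wells.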 Format: functional, cell-based. To be noted: Rattus norvegicus.
Experiment [21] is described as follows: THP-1 cell cytotoxicity, dose response, cytotoxicity control for Vif-APOBEC3G degradation inhibitor project, THP-1 cells (AID 1117359). Format: functional. To be noted: Human immunodeficiency virus 1, THP-1.
The target of experiment [22] is Induced myeloid leukemia cell differentiation protein Mcl-1 (Homo sapiens, UniProt Q07820). Format: functional.
The target of experiment [23] is T5, Long-chain-fatty-acid--AMP ligase FadD28 (Mycobacterium tuberculosis, UniProt P9WQ59).
T5 sequence (P9WQ59 whole entry): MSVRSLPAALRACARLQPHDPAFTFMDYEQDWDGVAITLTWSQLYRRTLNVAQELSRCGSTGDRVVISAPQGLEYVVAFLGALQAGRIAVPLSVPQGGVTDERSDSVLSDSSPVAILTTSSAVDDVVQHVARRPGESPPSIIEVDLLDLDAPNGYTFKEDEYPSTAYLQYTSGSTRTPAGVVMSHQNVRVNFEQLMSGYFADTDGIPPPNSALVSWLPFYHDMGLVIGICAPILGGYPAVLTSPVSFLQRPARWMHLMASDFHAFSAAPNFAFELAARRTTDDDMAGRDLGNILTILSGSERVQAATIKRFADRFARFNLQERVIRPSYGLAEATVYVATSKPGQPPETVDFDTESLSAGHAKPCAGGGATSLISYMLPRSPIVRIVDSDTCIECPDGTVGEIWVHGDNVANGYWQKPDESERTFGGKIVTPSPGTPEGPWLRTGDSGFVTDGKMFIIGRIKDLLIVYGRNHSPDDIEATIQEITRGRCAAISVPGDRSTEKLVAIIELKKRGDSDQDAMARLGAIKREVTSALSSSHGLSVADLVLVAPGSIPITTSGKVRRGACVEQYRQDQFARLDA
Description: Fluorescence polarization aasay to screen for inhibitors that compete for the binding of FadD28 to a bisubstrate Measured in Biochemical System Using Plate Reader - 2147-01_Inhibitor_Dose_CherryPick_Activity. Format: functional, Mycobacterium tuberculosis H37Rv.

Experiment [24] concerns the target Glucose-6-phosphate 1-dehydrogenase (Homo sapiens, UniProt P11413). Description: human G6PD enzyme inhibitors, dose response, selectivity assay for P. falciparum G6PD inhibitor project, biochemical, fluorescence (AID 504792). Format: functional.
In experiment [25] the target is Eukaryotic translation initiation factor 4E (Mus musculus, UniProt P63073). Description: eIF4E–eIF4G protein interaction inhibitors, dose response, biochemical, TR-FRET (AID 855).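 Further: potency for disrupting eIF4E binding to eIF4GI seen as loss of FRET.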 Format: functional.
Experiment [26] has as its target UDP-galactopyranose mutase (Mycobacterium tuberculosis, UniProt P9WIQ1). Briefly: Inhibitors of Mycobacterium tuberculosis UDP-galactopyranose mutase (UGM) enzyme Measured in Biochemical System Using Plate Reader - 2105-02_Inhibitor_Dose_CherryPick_Activity. [Related pubchem assays (depositor defined):AID504439].

Sequence of UDP-galactopyranose mutase (P9WIQ1 whole entry): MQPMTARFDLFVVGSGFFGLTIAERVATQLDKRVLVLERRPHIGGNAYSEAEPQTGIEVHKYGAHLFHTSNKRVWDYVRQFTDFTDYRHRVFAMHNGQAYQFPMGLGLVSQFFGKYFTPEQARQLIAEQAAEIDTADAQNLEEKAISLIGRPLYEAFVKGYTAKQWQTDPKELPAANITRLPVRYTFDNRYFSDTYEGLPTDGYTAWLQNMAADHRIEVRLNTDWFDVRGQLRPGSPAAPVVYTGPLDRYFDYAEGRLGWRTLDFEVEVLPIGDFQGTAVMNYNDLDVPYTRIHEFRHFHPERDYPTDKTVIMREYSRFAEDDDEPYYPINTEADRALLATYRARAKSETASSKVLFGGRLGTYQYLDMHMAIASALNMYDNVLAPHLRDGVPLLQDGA
Sequence of Mu-type opioid receptor (P35372 whole entry): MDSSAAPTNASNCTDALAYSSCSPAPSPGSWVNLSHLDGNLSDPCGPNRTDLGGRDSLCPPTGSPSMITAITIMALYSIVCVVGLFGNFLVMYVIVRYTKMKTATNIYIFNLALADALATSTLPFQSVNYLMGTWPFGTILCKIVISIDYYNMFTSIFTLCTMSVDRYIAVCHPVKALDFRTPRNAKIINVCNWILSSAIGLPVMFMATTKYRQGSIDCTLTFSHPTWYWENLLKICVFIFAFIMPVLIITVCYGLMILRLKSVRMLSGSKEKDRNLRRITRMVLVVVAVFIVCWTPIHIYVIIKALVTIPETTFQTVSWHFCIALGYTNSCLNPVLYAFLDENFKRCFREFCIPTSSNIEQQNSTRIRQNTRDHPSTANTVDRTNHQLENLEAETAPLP
Sequence of Sphingosine 1-phosphate receptor 2 (O95136 whole entry): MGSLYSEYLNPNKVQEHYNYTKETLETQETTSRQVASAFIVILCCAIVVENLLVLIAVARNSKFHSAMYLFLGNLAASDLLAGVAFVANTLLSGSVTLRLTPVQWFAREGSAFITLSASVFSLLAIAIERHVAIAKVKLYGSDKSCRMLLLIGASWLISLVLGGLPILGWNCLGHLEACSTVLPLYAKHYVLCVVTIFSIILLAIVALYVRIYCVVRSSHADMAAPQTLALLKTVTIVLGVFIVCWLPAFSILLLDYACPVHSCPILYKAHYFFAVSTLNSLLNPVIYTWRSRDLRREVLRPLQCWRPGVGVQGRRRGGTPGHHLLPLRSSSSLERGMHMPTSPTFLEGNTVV
Sequence of Nuclear receptor subfamily 0 group B member 1 (P51843 whole entry): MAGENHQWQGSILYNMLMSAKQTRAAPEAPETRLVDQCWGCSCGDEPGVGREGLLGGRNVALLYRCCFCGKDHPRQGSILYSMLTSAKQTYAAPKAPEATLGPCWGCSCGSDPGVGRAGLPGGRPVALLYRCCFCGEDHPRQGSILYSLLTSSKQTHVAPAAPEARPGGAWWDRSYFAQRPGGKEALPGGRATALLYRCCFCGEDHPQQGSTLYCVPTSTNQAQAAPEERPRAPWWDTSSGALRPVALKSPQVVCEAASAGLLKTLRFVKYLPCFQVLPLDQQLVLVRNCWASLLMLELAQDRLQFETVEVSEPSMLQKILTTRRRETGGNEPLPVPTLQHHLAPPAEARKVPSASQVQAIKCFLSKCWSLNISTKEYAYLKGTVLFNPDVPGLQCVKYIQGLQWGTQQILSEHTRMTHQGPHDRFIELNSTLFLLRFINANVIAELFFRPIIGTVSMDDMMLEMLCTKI
Sequence of Glucose-6-phosphate 1-dehydrogenase (P11413 whole entry): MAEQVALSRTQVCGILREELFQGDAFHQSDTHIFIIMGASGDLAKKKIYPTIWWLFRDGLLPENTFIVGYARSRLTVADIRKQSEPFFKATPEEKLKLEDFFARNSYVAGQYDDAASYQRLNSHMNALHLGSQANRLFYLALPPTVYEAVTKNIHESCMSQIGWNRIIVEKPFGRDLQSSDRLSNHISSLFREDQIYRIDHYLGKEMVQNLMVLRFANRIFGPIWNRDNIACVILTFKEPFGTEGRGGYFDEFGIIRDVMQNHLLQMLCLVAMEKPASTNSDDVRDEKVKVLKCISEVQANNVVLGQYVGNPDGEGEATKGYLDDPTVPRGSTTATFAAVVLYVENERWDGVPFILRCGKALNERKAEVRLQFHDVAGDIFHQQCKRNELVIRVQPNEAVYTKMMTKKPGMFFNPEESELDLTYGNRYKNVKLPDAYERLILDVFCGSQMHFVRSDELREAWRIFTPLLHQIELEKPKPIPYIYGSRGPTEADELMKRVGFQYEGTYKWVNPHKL
Sequence of Eukaryotic translation initiation factor 4E (P63073 whole entry): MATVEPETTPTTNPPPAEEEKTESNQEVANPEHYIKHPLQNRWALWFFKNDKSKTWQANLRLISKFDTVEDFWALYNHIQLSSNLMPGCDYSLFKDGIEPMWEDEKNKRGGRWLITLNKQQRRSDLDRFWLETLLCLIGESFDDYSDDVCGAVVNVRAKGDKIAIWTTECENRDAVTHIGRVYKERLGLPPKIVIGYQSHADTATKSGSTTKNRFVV
Sequence of Delta-type opioid receptor (P41143 whole entry): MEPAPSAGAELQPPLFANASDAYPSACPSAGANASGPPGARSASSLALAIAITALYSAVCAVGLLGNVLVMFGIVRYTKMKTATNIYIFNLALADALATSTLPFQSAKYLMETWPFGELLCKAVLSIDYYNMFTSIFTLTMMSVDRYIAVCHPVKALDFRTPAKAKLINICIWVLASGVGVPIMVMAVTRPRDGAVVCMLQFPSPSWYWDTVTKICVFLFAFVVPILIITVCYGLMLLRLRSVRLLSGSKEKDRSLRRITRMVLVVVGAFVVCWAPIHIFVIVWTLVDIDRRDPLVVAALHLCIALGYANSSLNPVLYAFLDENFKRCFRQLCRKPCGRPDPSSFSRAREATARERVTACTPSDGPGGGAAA
Sequence of 5-hydroxytryptamine receptor 5A (P47898 whole entry): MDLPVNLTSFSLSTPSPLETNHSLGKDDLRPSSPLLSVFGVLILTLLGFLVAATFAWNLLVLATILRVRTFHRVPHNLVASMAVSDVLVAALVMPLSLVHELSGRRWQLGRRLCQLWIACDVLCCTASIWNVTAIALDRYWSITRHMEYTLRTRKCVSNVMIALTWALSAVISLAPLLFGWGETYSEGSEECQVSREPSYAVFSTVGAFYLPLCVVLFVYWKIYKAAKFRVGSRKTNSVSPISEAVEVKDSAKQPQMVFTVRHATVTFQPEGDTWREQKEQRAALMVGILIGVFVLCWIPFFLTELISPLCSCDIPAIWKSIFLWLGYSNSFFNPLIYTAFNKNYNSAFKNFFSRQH
Sequence of Glyceraldehyde-3-phosphate dehydrogenase (P04406 whole entry): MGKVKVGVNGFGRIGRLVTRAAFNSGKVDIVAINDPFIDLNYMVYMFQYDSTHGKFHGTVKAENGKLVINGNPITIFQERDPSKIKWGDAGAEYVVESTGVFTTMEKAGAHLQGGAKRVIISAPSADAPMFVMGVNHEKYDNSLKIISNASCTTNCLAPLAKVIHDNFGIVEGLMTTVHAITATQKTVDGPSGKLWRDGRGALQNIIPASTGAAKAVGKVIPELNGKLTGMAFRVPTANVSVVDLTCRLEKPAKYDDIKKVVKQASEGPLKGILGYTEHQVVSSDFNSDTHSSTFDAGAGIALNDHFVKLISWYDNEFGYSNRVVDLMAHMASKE
Sequence of Induced myeloid leukemia cell differentiation protein Mcl-1 (Q07820 whole entry): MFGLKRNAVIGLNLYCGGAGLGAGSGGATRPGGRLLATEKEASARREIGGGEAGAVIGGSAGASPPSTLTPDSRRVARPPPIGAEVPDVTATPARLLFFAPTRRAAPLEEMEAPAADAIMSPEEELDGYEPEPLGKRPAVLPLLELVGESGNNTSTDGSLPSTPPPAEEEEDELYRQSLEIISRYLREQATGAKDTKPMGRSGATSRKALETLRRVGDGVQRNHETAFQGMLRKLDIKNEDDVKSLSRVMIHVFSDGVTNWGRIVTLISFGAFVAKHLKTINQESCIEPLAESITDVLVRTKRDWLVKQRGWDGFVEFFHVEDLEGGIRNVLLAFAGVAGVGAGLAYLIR
Sequence of Voltage-gated inwardly rectifying potassium channel KCNH2 (Q12809 whole entry): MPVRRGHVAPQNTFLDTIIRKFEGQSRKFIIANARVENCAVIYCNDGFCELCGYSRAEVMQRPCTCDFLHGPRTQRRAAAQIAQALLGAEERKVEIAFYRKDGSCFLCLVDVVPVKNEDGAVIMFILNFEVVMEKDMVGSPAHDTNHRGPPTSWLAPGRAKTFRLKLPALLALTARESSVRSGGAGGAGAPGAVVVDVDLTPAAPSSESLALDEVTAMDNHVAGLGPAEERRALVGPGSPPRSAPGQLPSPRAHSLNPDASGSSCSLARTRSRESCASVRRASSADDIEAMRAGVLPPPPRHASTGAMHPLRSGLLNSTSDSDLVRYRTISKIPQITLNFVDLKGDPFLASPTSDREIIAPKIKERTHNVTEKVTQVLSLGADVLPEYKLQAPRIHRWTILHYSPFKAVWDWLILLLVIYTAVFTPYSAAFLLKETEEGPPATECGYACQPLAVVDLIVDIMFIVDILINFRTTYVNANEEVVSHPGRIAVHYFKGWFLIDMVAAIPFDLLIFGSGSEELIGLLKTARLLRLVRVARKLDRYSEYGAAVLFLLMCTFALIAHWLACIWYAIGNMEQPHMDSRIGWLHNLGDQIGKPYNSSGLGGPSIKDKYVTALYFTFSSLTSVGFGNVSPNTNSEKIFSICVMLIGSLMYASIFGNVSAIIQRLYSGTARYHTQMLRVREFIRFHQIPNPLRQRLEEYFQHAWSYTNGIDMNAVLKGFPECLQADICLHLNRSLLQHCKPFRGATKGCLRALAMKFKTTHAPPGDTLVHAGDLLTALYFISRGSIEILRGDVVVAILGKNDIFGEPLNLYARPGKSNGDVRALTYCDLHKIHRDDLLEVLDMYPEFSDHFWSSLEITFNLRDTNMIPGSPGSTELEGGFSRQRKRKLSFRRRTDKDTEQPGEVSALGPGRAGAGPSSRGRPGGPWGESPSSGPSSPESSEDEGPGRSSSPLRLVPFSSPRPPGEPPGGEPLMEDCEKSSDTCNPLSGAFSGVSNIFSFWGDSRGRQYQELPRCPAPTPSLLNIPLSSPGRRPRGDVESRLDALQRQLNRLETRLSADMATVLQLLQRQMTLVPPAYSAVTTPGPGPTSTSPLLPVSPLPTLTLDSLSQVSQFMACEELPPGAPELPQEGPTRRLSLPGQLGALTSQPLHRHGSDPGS

Usually EC50 stands for the concentration that produces a half-maximal response. In the case of `CCCCC(=O)Nc1cccc(NC(=O)c2ccccc2Br)c1`, the EC50 is 6.9 µM (active) in [1], > 112 µM (not active) in experiment [2], < 3 µM (active) in experiment [3] and 500 µM (inactive) in experiment [4].

A word on the IC50: it is the concentration needed to halve the response being measured. For `COc1ccc(-c2csc(Nc3cccc(C)n3)n2)cc1`, the IC50 (in the experiment on HEK293; in experiment [5]) was > 67.5 µM (inactive) in each case.

The term AC50 denotes the concentration at which the activity in the assay is half-maximal. As for `CCN(CC)C(=O)N[C@@H]1C[C@@H]2c3cccc4[nH]cc(c34)C[C@H]2N(C)C1`, the AC50 in experiment [6] is 25.1 µM (inconclusive).

For the compound `Cc1ccccc1Cn1c(=O)n(-c2ccccc2)c(=O)n([C@H](C(=O)O)C(C)C)c1=O`, the IC50 in experiment [7] was > 100 µM (inactive); in experiment [8], > 100 µM (inactive); in [9] it was > 100 µM (not active); in experiment [10], > 100 µM (not active).

A word on the CC50: it is the concentration giving 50% cytotoxicity. Consider `CC1=C/C(=N\OS(=O)(=O)c2ccccc2)C(C)=CC1=O`, for which the EC50 in experiment [11] is 16.4 µM (active); in experiment [12], > 92.5 µM (inactive); on Mu-type opioid receptor, > 92.5 µM (inactive); in experiment [14] it was 14.5 µM (active); in experiment [19], > 92.5 µM (inactive). Besides, the IC50 in experiment [13] is 12.3 µM (active); in [17], 3.73 µM (active); in experiment [18] it was 3.71 µM (active); in the experiment “cells”, 3.09 µM (active). For the same compound, the AC50 is 0.554 µM (active) in experiment [15] and 1.17 µM (active) in the experiment on INS1. The CC50 in experiment [16] was 15.6 µM (active); in [20], 12 µM (active).

With `COc1cc(/C=C2\CC/C(=C\c3cc(OC)c(O)c(OC)c3)C2=O)cc(OC)c1O`, the CC50 in [21] is 3.3 µM (active). Moreover, the IC50 was 5.75 µM (active) in experiment [22], > 80 µM (inactive) in experiment [24], > 64 µM (inactive) in [25] and 24.7 µM (active) in experiment [17]. Besides, the results for the AC50 (in experiment [23]; in experiment [26]; in the experiment on INS1) were 86.6 µM (active), 8.22 µM (active) and 4.41 µM (active), respectively.
